Test results published in the supplement of paper PMC5412046.
Counter-ions that a name gives are not always drawn.

How the values were obtained:
SB.msgc-1 = assay: AC50 for growth inhibition (viability) (log10 M); higher = less potent; details: SB.msgc-1 (sporadic gastric cancer)
Procedure, shortened: (§1)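 Hereditary or sporadic patient-derived gastric cancer cells (500 cells in 5 μL medium per 1536 well) received 23 nL compound in DMSO by pintool. Dosing was 11 threefold dilutions starting at a final 46 μM. After 48 h, CellTiter-Glo was added for 30 min at room temperature and luminescence read on a ViewLux. Log half-maximal activity concentration came from a four-parameter fit of DMSO-normalised viability, keeping only high-quality curve classes.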

SB.mhdgc-1 = assay: as above; details: SB.mhdgc-1 (hereditary c.1380delA CDH1 gastric cancer)
Procedure, shortened: as §1

SMILES	AC50 for growth inhibition (log10 M) (SB.msgc-1)	AC50 for growth inhibition (log10 M) (SB.mhdgc-1)
C=CC(=O)Nc1cccc(Oc2nc(Nc3ccc(N4CCN(C)CC4)cc3)ncc2Cl)c1 [WZ-3146]	-5.88	-5.18
CC1=C(/C=C/C(C)=C/C=C/C(C)=C/C=C/C=C(C)/C=C/C=C(C)/C=C/C2=C(C)CCCC2(C)C)C(C)(C)CCC1 [beta-Carotene]	-4.88	-5.13
CC[C@H](NC(=O)[C@H](C)NC)C(=O)N1C[C@@H](O)C[C@H]1Cc1c(-c2[nH]c3cc(F)ccc3c2C[C@@H]2C[C@H](O)CN2C(=O)[C@H](CC)NC(=O)[C@H](C)NC)[nH]c2cc(F)ccc12 [Birinapant]	-5.53	-6.23
COc1ccc(-c2nc(N3CCOCC3)c3sc(CN(C)c4ncc(C(=O)NO)cn4)cc3n2)cn1 [CUDC-907]	-7.83	-6.28
O=C(OC)[C@]12CC[C@@]3(C)[C@]4(C)CC[C@H]5[C@@](C)(C)C(=O)C(=C[C@]5(C)C4=CC(=O)[C@@H]3[C@@H]2C[C@](C)(C)CC1)C#N [Bardoxolone methyl]	-6.33	-6.28
Cc1cc(Nc2cc(NC(=O)c3c(Cl)cccc3Cl)ccn2)nc(N)n1 [RO495]	-6.38	-5.58
COc1cc(OC)c(/C=C/[S+](=O)([O-])Cc2ccc(OC)c(NCC(=O)[O][Na])c2)c(OC)c1	-6.33	-6.03
C=CC(=O)Nc1cccc(Nc2nc(NC3CCC(N(C)C)CC3)nc3c2ncn3C(C)C)c1 (stereo unspecified)	-7.43	-7.88
Cc1cc2c(F)c(Oc3ncnn4cc(OC[C@@H](C)O)c(C)c34)ccc2[nH]1 [Brivanib]	-4.73	-4.98
O=C(Nc1nc2ccccc2n1CCN1CCOCC1)c1cccc([N+](=O)[O-])c1	-4.83	-4.83
CC(C)c1ccccc1Cc1cc(C(=O)Nc2ccc([S+](=O)([O-])c3ccccc3C(C)(C)C)cc2)c(O)c(O)c1O [TW-37]	-5.13	-4.83
N[S+]([O-])(=O)C1=CC=C(NC/2=C/C(=O)C3=CC=CC=C3C2=O)C=C1	-4.98	-6.23
CC(C)(C)NC(=O)[C@@H]1CN(Cc2cccnc2)CCN1C[C@@H](O)C[C@@H](Cc1ccccc1)C(=O)N[C@H]1c2ccccc2C[C@H]1O.O=S(=O)(O)O [Indinavir]	-4.78	-6.08
C/C=C(/C)C(=O)O[C@H]1C(C)=C2[C@H]([C@@H]1OC(=O)CCCCCCC)[C@@](C)(OC(C)=O)C[C@H](OC(=O)CCC)[C@@]1(O)[C@H]2OC(=O)[C@@]1(C)O [Thapsigargin]	-7.43	-6.98
O=C(CCCCCCC(=O)Nc1ccccc1)NO [Vorinostat]	-5.58	-5.63
C[C@@H]1[C@H](O)[C@@H](C)/C=C/C=C/C=C/C=C/C=C/C=C/C=C/[C@H](O[C@@H]2O[C@H](C)[C@@H](O)[C@H](N)[C@@H]2O)C[C@@H]2O[C@](O)(C[C@@H](O)C[C@@H](O)[C@H](O)CC[C@@H](O)C[C@@H](O)CC(=O)O[C@H]1C)C[C@H](O)[C@H]2C(=O)O [Amphotericin B]	-4.88	-6.38
COc1c(Cl)cc2c([nH]c3cnccc32)c1NC(=O)c1cccnc1C [MLN-120B]	-5.23	-5.83
CN(C)Cc1c(C(=O)NCCOc2ccc(C(=O)NO)cc2)oc2ccccc12 [Abexinostat]	-5.93	-5.13
OC[C@H]1O[C@H]([C@@H](F)[C@@H]1O)N2\C=C/C(=O)NC2=O	-5.13	-5.08
COc1ccc(-c2ccc3ncc4c(c3c2)n(-c2ccc(N3CCNCC3)c(C(F)(F)F)c2)c(=O)n4C)cn1 [NVP-BGT226]	-5.58	-6.58
CN1C(=O)C(=C/2N(C(=O)N(C3CC3)C(=O)C2=C1/NC4=CC=C(I)C=C4F)C5=CC=CC(=C5)NC(C)=O)\C [Trametinib]	-6.63	-5.03
CC(C)c1cc(C(=O)N2Cc3ccc(CN4CCN(C)CC4)cc3C2)c(O)cc1O	-6.78	-6.53

SMILES	AC50 for growth inhibition (log10 M) (SB.msgc-1)	AC50 for growth inhibition (log10 M) (SB.mhdgc-1)
CC(C)NC[C@@H](C(=O)N1CCN(c2ncnc3c2[C@H](C)C[C@H]3O)CC1)c1ccc(Cl)cc1 [GDC-0068]	-5.13	-6.48
C[C@H](NC(=O)c1sccc1OCc1ccc(Cl)cc1)c1ccccc1	-4.73	-4.98
Cc1cc(Nc2ncc3c(n2)N(C)C(=O)N(c2cc(NC(=O)c4cccc(C(F)(F)F)c4)ccc2C)C3)n(C)n1 [Pluripotin]	-6.08	-5.23
C/C=C1\NC(=O)[C@H]2CSSCC/C=C\[C@H](CC(=O)N[C@H](C(C)C)C(=O)N2)OC(=O)[C@H](C(C)C)NC1=O [Romidepsin]	-7.83	-7.63
COC1=CC(c2cc3ccccc3[nH]2)=N/C1=C/c1[nH]c(C)cc1C [Obatoclax]	-5.33	-5.43
CNC(=O)c1cc(Oc2ccc(NC(=O)Nc3ccc(Cl)c(C(F)(F)F)c3)cc2)ccn1 [Sorafenib]	-4.98	-5.08
Cc1ccc(C(=O)Nc2ccc(CN3CCN(C)CC3)c(C(F)(F)F)c2)cc1C#Cc1cnc2cccnn12 [Ponatinib]	-4.88	-5.78
COc1cccc2c1C(=O)c1c(O)c3c(c(O)c1C2=O)C[C@@](O)(C(=O)CO)C[C@@H]3O[C@H]1C[C@H](N)[C@@H](O)[C@H](C)O1 [Epirubicin hydrochloride]	-6.18	-6.93
CC(C)(O)c1cc2nc(-c3cnc(N)nc3)nc(N3CCOCC3)c2s1 [GNE-493]	-6.88	-6.98
Cc1ccc(NC(=O)C2(c3ccc4c(c3)OC(F)(F)O4)CC2)nc1-c1cccc(C(=O)O)c1 [Lumacaftor]	-7.63	-6.73
S=P(N1CC1)(N1CC1)N1CC1 [ThioTEPA]	-5.23	-5.48
C[N+](C)([O-])CCNc1ccc(NCC[N+](C)(C)[O-])c2c1C(=O)c1c(O)ccc(O)c1C2=O [Banoxantrone]	-4.88	-4.78
C/C(O)=C(\C#N)C(=O)Nc1ccc(C(F)(F)F)cc1 [Teriflunomide]	-4.78	-4.63
Nc1nccc(-c2ccc3noc(-c4ccc(Cl)cc4)c3c2)n1 [Pim 1 inhibitor 2]	-5.03	-5.48
CC(/C=C/C(=O)NO)=C\[C@@H](C)C(=O)c1ccc(N(C)C)cc1 [Trichostatin A]	-6.13	-5.88
Nc1cc(C(F)(F)F)c(-c2cc(N3CCOCC3)nc(N3CCOCC3)n2)cn1 [BKM-120]	-6.18	-6.78
COc1c(C)c2c(c(O)c1C/C=C(\C)CCC(=O)OCCN1CCOCC1)C(=O)OC2 [Mycophenolate mofetil]	-5.03	-5.88
Cc1nnc(C(C)C)n1[C@@H]1C[C@H]2CC[C@@H](C1)N2CC[C@H](NC(=O)C1CCC(F)(F)CC1)c1ccccc1 [Maraviroc]	-4.78	-5.18
CCN(CC)CCOc1ccc(Cc2ccccc2)cc1 [Tesmilifene hydrochloride]	-5.18	-4.48
CCc1nc(N)nc(N)c1-c1ccc(Cl)cc1 [Pyrimethamine]	-5.48	-5.38
N#Cc1ccc(COC[C@H]2O[C@@H](n3c(NCc4ccc(Cl)c(Cl)c4)nc4c(N)ncnc43)[C@H](O)[C@@H]2O)cc1	-5.08	-4.93
